Results: patent US9296759B2, “Amino-oxazine and amino-dihydrothiazine compounds as beta-secretase modulators and methods of use” (AMGEN INC., priority 2011, dated 2016)
Like-named read-outs stand apart in the source and are kept apart here.

Legend:
[1] = system: pigment epithelium of the rat's eye; details: higher compound dose given for three months; cited from earlier work
[2] = people of the phase I trial; cited from earlier work
Cathepsin D = Cathepsin D (Homo sapiens (Human), UniProt P07339); experiment: In vitro enzymatic Cat D (Cathepsin D) FRET assay; format: biochemical; details: average IC50
Sequence of Cathepsin D (P07339 65-412, species assumed): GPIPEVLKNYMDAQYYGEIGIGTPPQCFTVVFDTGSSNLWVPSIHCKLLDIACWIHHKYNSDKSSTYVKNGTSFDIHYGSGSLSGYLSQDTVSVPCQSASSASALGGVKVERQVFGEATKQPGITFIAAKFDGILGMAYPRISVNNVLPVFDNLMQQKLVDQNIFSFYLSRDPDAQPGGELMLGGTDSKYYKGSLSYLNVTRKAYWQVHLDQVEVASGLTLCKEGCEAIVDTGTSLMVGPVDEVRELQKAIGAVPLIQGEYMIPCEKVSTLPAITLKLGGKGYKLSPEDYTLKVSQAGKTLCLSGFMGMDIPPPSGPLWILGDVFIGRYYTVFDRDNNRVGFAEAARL
Procedure, shortened: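 CHO-expressed recombinant enzyme in 0.05 M citrate pH 3.5, 5 mM CHAPS, 10% DMSO final; reaction started with 20 nM quenched-peptide FRET substrate (cleavage site spanned by fluorophore/quencher), 1 h incubation.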

[3] = target: BACE 1 (beta secretase enzyme) (Homo sapiens (Human), UniProt P56817); experiment: In vitro enzymatic BACE FRET assay; format: biochemical; details: average IC50
Sequence of BACE 1 (beta secretase enzyme) (P56817 46-501): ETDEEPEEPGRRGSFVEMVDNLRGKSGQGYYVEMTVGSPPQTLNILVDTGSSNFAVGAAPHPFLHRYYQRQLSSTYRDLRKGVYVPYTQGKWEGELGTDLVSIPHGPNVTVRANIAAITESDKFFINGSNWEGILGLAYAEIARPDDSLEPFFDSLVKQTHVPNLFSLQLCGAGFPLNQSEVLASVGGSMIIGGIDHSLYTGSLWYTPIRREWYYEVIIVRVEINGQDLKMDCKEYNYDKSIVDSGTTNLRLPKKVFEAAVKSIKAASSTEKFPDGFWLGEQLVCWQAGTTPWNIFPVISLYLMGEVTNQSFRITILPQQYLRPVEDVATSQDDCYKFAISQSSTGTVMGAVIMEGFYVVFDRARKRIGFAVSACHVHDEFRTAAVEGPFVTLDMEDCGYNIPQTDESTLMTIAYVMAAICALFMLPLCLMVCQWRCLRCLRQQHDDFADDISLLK
Procedure, shortened: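 The enzyme was tested in 0.05 M acetate, pH 4.2, with 10% DMSO final and 100 uM genapol. The reaction was started with 50 nM quenched FRET peptide substrate, incubated one hour and stopped with Tris to neutral pH. Cleavage was read as fluorescence ([…]).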

Abeta 40 = experiment: In vivo inhibition of beta-secretase: Abeta 40 reduction in CSF and brain of the rat; details: 10 mpk, after 4 hrs
Description: In Vivo Inhibition of Beta-Secretase
Several animal models, including mouse, rat, dog, and monkey, may be used to screen for inhibition of beta-secretase activity in vivo following administration of a test compound sample. Animals used in this invention can be wild type, transgenic, or gene knockout animals. For example, the Tg2576 mouse model, prepared and conducted as described in Hsiao et al., 1996, Science 274, 99-102, and other non-transgenic or gene knockout animals are useful to analyze in vivo inhibition of Amyloid beta peptide (Abeta) production in the presence of inhibitory test compounds. Generally, 2 to 18 month old Tg2576 mice, gene knockout mice or non-transgenic animals are administered test compounds formulated in vehicles, such as cyclodextran, phosphate buffers, hydroxypropyl methylcellulose or other suitable vehicles. One to twenty-four hours following the administration of compound, animals are sacrificed, and brains as well as cerebrospinal fluid (CSF) and plasma are removed for analysis of A-beta levels and drug or test compound concentrations (Dovey et al., 2001, Journal of Neurochemistry, 76, 173-181) Beginning at time 0, animals are administered by oral gavage, or other means of delivery such as intravenous injection, an inhibitory test compound of up to 100 mg/kg in a standard, conventional formulation, such as 2% hydroxypropyl methylcellulose, 1% Tween80. A separate group of animals receive 2% hydroxypropyl methylcellulose, 1% Tween80 alone, containing no test compound, and serve as a vehicle-control group. At the end of the test period, animals are sacrificed and brain tissues, plasma or cerebrospinal fluid are collected. Brains are either homogenized in 10 volumes (w/v) of 0.2% diethylamine (DEA) in 50 mM NaCl (Best et al., 2005, Journal of Pharmacology and Experimental Therapeutics, 313, 902-908), or in 10 volumes of 0.5% TritonX-100 in Tris-buffered saline (pH at about 7.6). Homogenates are centrifuged at 355,000 g, 4° C. for 30 minutes. CSF or brain supernatants are then analyzed for the presence of A-beta peptide by specific sandwich ELISA assays based on ECL (Electrochemiluminescence) technology. For example, rat Abeta40 is measured using biotinylated-4G8 (Signet) as a capture antibody and Fab40 (an in-house antibody specific to the C-terminal of Abeta40) as a detection antibody. For example, 4 hours after administration of 30 mg/kg oral dose of the test compound in 2% hydroxypropyl methylcellulose, 1% Tween80 (pH2.2) to 200 g male Sprague Dawley rats, amyloid beta peptide levels are measured for reduction by X % and Y % in cerebrospinal fluid and brain, respectively, when compared to the levels measured in the vehicle-treated rats.
• Oral: 2% HPMC, 1% Tween80, pH 2.2 • IV: 5% EtOH, 45% Propylene glycol in 5% Dextrose
The compounds of the invention may be shown to reduce the formation and/or deposition of amyloid beta peptide in the cerebrospinal fluid (CSF) as well as in the brain of a mouse or rat at either 3 mpk, 10 mpk or 30 mpk (mpk=mg compound per kg weight of the animal) dosing concentrations after 4 hrs.

[4] = system: Aβ40 in conditioned medium of cells stably expressing Amyloid Precursor Protein (APP); experiment: In vitro BACE cell-based assay (HEK cell assay, Aβ40 sandwich ELISA); details: Homo sapiens, HEK293; average IC50, Aβ40, 24 h incubation
Procedure, shortened: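 Secreted Aβ40 was quantified by sandwich ELISA (pAb40 capture, biotinylated 6E10 detection, Europium time-resolved fluorescence). IC50 derived from percent inhibition versus concentration.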

[5] = Abeta 40, rat CSF, read-out: % reduction of rat CSF levels at 10 pmk
[6] = Abeta 40, rat brain, read-out: % reduction of rat brain levels at 10 mpk

## C[C@@]1(c2cc(-c3cncnc3)c(F)cc2F)CCSC(N)=N1 [LY 2811376]
[1]
  retinal toxicity finding: ravaged the pigment epithelium of the rat's eye
[2]
  eye assessments: did not show any abnormalities

## COc1ccc(C(=O)Nc2ccc3c(c2)[C@@]2(CCOC(N)=N2)c2cc(C4=CCCOC4)nc(F)c2O3)nc1 [Example 84, N-((5S)-2′-amino-3-(5,6-dihydro-2H-pyran-3-yl)-1-fluoro-5′,6′-dihydrospiro[chromeno[2,3-c]pyridine-5,4′-[1,3]oxazin]-7-yl)-5-methoxy-2-pyridinecarboxamide]
Cathepsin D
  IC50: 313000 nM
[3]
  IC50: 0.9 nM
Abeta 40; [5]
  inhibition in vivo at 10 mg/kg: 83%
Abeta 40; [6]
  inhibition in vivo at 10 mg/kg: 71%
[4]
  IC50: 0.1 nM

## Cc1nc(C(=O)Nc2ccc3c(c2)[C@@]2(CCOC(N)=N2)c2cc(-c4cncc(F)c4)nc(F)c2O3)cs1 [Example 88, N-((5S)-2′-amino-1-fluoro-3-(5-fluoro-3-pyridinyl)-5′,6′-dihydrospiro[chromeno[2,3-c]pyridine-5,4′-[1,3]oxazin]-7-yl)-2-methyl-1,3-thiazole-4-carboxamide]
Cathepsin D
  IC50: 362000 nM
[3]
  IC50: 0.6 nM
Abeta 40; [5]
  inhibition in vivo at 10 mg/kg: 49%
Abeta 40; [6]
  inhibition in vivo at 10 mg/kg: 27%
[4]
  IC50: 0.2 nM

## NC1=N[C@@]2(CCO1)c1cc(NC(=O)c3ccc(Cl)cn3)ccc1Oc1cnc(C3CC3)cc12 [Example 81, N-((5S)-2′-amino-3-cyclopropyl-5′,6′-dihydrospiro[chromeno[2,3-c]pyridine-5,4′-[1,3]oxazin]-7-yl)-5-chloro-2-pyridinecarboxamide]
Cathepsin D
  IC50: 400000 nM
[3]
  IC50: 10.7 nM
Abeta 40; [5]
  inhibition in vivo at 10 mg/kg: 76%
Abeta 40; [6]
  inhibition in vivo at 10 mg/kg: 64%
[4]
  IC50: 1.1 nM

## COc1ccc(C(=O)Nc2ccc3c(c2)[C@@]2(CCSC(N)=N2)c2cc(C4=CCCOC4)nc(F)c2O3)nc1 [Example 111, N-((5S)-2′-amino-3-(5,6-dihydro-2H-pyran-3-yl)-1-fluoro-5′,6′-dihydrospiro[chromeno[2,3-c]pyridine-5,4′-[1,3]thiazin]-7-yl)-5-methoxy-2-pyridinecarboxamide]
Cathepsin D
  IC50: 569000 nM
[3]
  IC50: 2.5 nM
Abeta 40; [5]
  inhibition in vivo at 10 mg/kg: 76%
Abeta 40; [6]
  inhibition in vivo at 10 mg/kg: 58%
[4]
  IC50: 0.8 nM

## COc1cnc(C(=O)Nc2ccc3c(c2)[C@@]2(CCOC(N)=N2)c2cc(C4CC4)nc(F)c2O3)cn1 [Example 54, N-((5S)-2′-amino-3-cyclopropyl-1-fluoro-5′,6′-dihydrospiro[chromeno[2,3-c]pyridine-5,4′-[1,3]oxazin]-7-yl)-5-methoxy-2-pyrazinecarboxamide]
Cathepsin D
  IC50: 269000 nM
[3]
  IC50: 5 nM
Abeta 40; [5]
  inhibition in vivo at 10 mg/kg: 77%
Abeta 40; [6]
  inhibition in vivo at 10 mg/kg: 65%
[4]
  IC50: 9.6 nM

## COc1cnc(C(=O)Nc2ccc3c(c2)[C@@]2(CCOC(N)=N2)c2cc(C4=CCCOC4)nc(F)c2O3)cn1 [Example 51, N-((5S)-2′-amino-3-(5,6-dihydro-2H-pyran-3-yl)-1-fluoro-5′,6′-dihydrospiro[chromeno[2,3-c]pyridine-5,4′-[1,3]oxazin]-7-yl)-5-methoxy-2-pyrazinecarboxamide]
Cathepsin D
  IC50: > 400000 nM
[3]
  IC50: 2.7 nM
Abeta 40; [5]
  inhibition in vivo at 10 mg/kg: 85%
Abeta 40; [6]
  inhibition in vivo at 10 mg/kg: 76%
[4]
  IC50: 4.2 nM

## NC1=N[C@@]2(CCO1)c1cc(NC(=O)c3ccc(Cl)cn3)ccc1Oc1ncc(Br)cc12 [Example 34, N-((5S)-2′-amino-3-bromo-5′,6′-dihydrospiro[chromeno[2,3-b]pyridine-5,4′-[1,3]oxazin]-7-yl)-5-chloro-2-pyridinecarboxamide]
Cathepsin D
  IC50: 245000 nM
[3]
  IC50: 13.6 nM
Abeta 40; [5]
  inhibition in vivo at 10 mg/kg: 64%
Abeta 40; [6]
  inhibition in vivo at 10 mg/kg: 17%
[4]
  IC50: 7 nM

## NC1=N[C@@]2(CCO1)c1cc(NC(=O)c3ccc(Cl)cn3)ccc1Oc1ncc(C3CC3)cc12 [Example 73, N-((5S)-2′-amino-3-cyclopropyl-5′,6′-dihydrospiro[chromeno[2,3-b]pyridine-5,4′-[1,3]oxazin]-7-yl)-5-chloro-2-pyridinecarboxamide]
Cathepsin D
  IC50: 433000 nM
[3]
  IC50: 12.7 nM
Abeta 40; [5]
  inhibition in vivo at 10 mg/kg: 38%
Abeta 40; [6]
  inhibition in vivo at 10 mg/kg: 7%
[4]
  IC50: 3.2 nM

## COc1cnc(C(=O)Nc2ccc3c(c2)[C@@]2(CCOC(N)=N2)c2cc(C4=CCOCC4)nc(F)c2O3)cn1 [Example 65, N-((5S)-2′-amino-3-(3,6-dihydro-2H-pyran-4-yl)-1-fluoro-5′,6′-dihydrospiro[chromeno[2,3-c]pyridine-5,4′-[1,3]oxazin]-7-yl)-5-methoxy-2-pyrazinecarboxamide]
Cathepsin D
  IC50: 400000 nM
[3]
  IC50: 0.9 nM
Abeta 40; [5]
  inhibition in vivo at 10 mg/kg: 83%
Abeta 40; [6]
  inhibition in vivo at 10 mg/kg: 71%
[4]
  IC50: 0.051 nM

## NC1=N[C@@]2(CCO1)c1cc(NC(=O)c3ccc(Cl)cn3)ccc1Oc1c2cc(C2=CCCOC2)nc1F [Example 39, N-((5S)-2′-amino-3-(5,6-dihydro-2H-pyran-3-yl)-1-fluoro-5′,6′-dihydrospiro[chromeno[2,3-c]pyridine-5,4′-[1,3]oxazin]-7-yl)-5-chloro-2-pyridinecarboxamide]
Cathepsin D
  IC50: > 400000 nM
[3]
  IC50: 2 nM
Abeta 40; [5]
  inhibition in vivo at 10 mg/kg: 85%
Abeta 40; [6]
  inhibition in vivo at 10 mg/kg: 80%
[4]
  IC50: 0.5 nM

## NC1=N[C@@]2(CCO1)c1cc(NC(=O)c3ccc(F)cn3)ccc1Oc1c2cc(-c2cncc(F)c2)nc1F [Example 89, N-((5S)-2′-amino-1-fluoro-3-(5-fluoro-3-pyridinyl)-5′,6′-dihydrospiro[chromeno[2,3-c]pyridine-5,4′-[1,3]oxazin]-7-yl)-5-fluoro-2-pyridinecarboxamide]
Cathepsin D
  IC50: 400000 nM
[3]
  IC50: 1.6 nM
Abeta 40; [5]
  inhibition in vivo at 10 mg/kg: 69%
Abeta 40; [6]
  inhibition in vivo at 10 mg/kg: 46%
[4]
  IC50: 0.6 nM

## COc1ccc(C(=O)Nc2ccc3c(c2)[C@@]2(CCSC(N)=N2)c2cc(C4=CCOCC4)nc(F)c2O3)nc1 [Example 101, N-((5S)-2′-amino-3-(3,6-dihydro-2H-pyran-4-yl)-1-fluoro-5′,6′-dihydrospiro[chromeno[2,3-c]pyridine-5,4′-[1,3]thiazin]-7-yl)-5-methoxy-2-pyridinecarboxamide]
Cathepsin D
  IC50: 198000 nM
[3]
  IC50: 1.5 nM
Abeta 40; [5]
  inhibition in vivo at 10 mg/kg: 76%
Abeta 40; [6]
  inhibition in vivo at 10 mg/kg: 59%
[4]
  IC50: 0.7 nM

## COc1cnc(C(=O)Nc2ccc3c(c2)[C@@]2(CCOC(N)=N2)c2cc(C4CC4)ncc2O3)cn1 [Example 80, N-((5S)-2′-amino-3-cyclopropyl-5′,6′-dihydrospiro[chromeno[2,3-c]pyridine-5,4′-[1,3]oxazin]-7-yl)-5-methoxy-2-pyrazinecarboxamide]
Cathepsin D
  IC50: 963000 nM
[3]
  IC50: 6.8 nM
Abeta 40; [5]
  inhibition in vivo at 10 mg/kg: 82%
Abeta 40; [6]
  inhibition in vivo at 10 mg/kg: 80%
[4]
  IC50: 1.5 nM

## NC1=N[C@@]2(CCO1)c1cc(NC(=O)c3ccc(F)cn3)ccc1Oc1c2cc(C2=CCOCC2)nc1F [Example 72, N-((5S)-2′-amino-3-(3,6-dihydro-2H-pyran-4-yl)-1-fluoro-5′,6′-dihydrospiro[chromeno[2,3-c]pyridine-5,4′-[1,3]oxazin]-7-yl)-5-fluoro-2-pyridinecarboxamide]
Cathepsin D
  IC50: 358000 nM
[3]
  IC50: 1.1 nM
Abeta 40; [5]
  inhibition in vivo at 10 mg/kg: 78%
Abeta 40; [6]
  inhibition in vivo at 10 mg/kg: 72%
[4]
  IC50: 0.2 nM
